Molecules are shown by their SMILES.

For the experiment, the target named is T1, human recombinant adrenergic α1D receptor (Homo sapiens, UniProt P25100).
T1 construct: expressed in transfected cells; host or cells: HEK-293 cells
T1 sequence (P25100 1-572): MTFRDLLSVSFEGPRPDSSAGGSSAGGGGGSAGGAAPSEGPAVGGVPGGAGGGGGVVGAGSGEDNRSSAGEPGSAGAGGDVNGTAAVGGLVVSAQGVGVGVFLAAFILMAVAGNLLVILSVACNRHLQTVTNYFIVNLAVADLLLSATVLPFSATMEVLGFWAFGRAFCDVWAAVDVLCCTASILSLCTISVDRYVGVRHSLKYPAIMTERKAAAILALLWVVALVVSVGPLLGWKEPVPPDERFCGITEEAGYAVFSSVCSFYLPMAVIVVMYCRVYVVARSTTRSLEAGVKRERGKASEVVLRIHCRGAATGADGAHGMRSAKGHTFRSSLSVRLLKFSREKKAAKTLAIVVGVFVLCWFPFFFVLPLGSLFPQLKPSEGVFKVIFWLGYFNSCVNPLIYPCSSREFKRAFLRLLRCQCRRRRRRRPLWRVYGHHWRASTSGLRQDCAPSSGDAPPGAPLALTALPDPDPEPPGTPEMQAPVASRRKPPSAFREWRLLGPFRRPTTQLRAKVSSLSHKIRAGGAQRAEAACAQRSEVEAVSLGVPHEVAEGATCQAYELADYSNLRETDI
Kind of experiment: Adrenergic alpha1D radioligand binding ([3H]Prozosin). The note with it: compound at 1 μM; read-out: Adrenergic (1 μM) α1D, percent inhibition of specific binding. Put shortly:
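Membranes from HEK-293 cells expressing the human receptor in 50 mM Tris-HCl pH 7.4 were incubated 60 min at 25 °C with 0.6 nM [3H]prazosin. Nonspecific binding was defined with 10 μM phentolamine, and bound ligand measured by filtration.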
For orientation: inhibition means the drop in the measured response relative to a control, in per cent. Regarding `Cc1ccc2c(c1)c1c(n2/C=C/c2ccc(Cl)cc2)CCN(C)CC1` [Compound No. 235, (E)-6-(4-chlorostyryl)-3,9-dimethyl-1,2,3,4,5,6-hexahydroazepino[4,5-b]indole], the inhibition at 1 µM turned out to be 95%.
Then `Cc1ccc2c(c1)c1c(n2CCc2ccccc2Cl)CCN(C)CC1` [Compound No. 69, 6-(2-chlorophenethyl)-1,2,3,4,5,6-hexahydro-3,9-dimethylazepino[4,5-b]indole], with -5%; and `Cc1ccc2c(c1)c1c(n2CCc2ccccn2)CCN(C)CC1` [Compound No. 9, 1,2,3,4,5,6-hexahydro-3,9-dimethyl-6-(2-(pyridin-2-yl)ethyl)azepino[4,5-b]indole], with 80%.
Turning to `Cc1ccc(C(O)Cn2c3c(c4cc(Cl)ccc42)CCN(C)CC3)cc1` (stereo not drawn) [Compound No. 26, 2-(9-chloro-2,3,4,5-tetrahydro-3-methylazepino[4,5-b]indol-6(1H)-yl)-1-p-tolylethanol], the inhibition at 1 µM was found to be 94%.
Then `CN1CCc2c(n(CC(C)(O)c3ccc(F)cc3)c3ccc(Cl)cc23)CC1` (stereo not drawn) [Compound No. 13, 1-(9-chloro-2,3,4,5-tetrahydro-3-methylazepino[4,5-b]indol-6(1H)-yl)-2-(4-fluorophenyl)propan-2-ol], with 76%.
As for `CN1CCc2c(n(CCc3ccncc3)c3ccc(Cl)cc23)CC1` [Compound No. 5, 9-chloro-1,2,3,4,5,6-hexahydro-3-methyl-6-(2-(pyridin-4-yl)ethyl)azepino[4,5-b]indole], the inhibition at 1 µM is 88%.
Then `Cc1ccc2c(c1)c1c(n2CC(O)c2ccc(C)nc2)CCN(C)CC1` (stereo not drawn) [Compound No. 23, 2-(2,3,4,5-tetrahydro-3,9-dimethylazepino[4,5-b]indol-6(1H)-yl)-1-(6-methylpyridin-3-yl)ethanol], with 17%; and `CN1CCc2c(n(CC(=O)Nc3ccc(F)cc3)c3ccc(Cl)cc23)CC1` [Compound No. 37, 2-(9-chloro-2,3,4,5-tetrahydro-3-methylazepino[4,5-b]indol-6(1H)-yl)-N-(4-fluorophenyl) acetamide], with 14%; and `Cc1ccc2c(c1)c1c(n2CC(=O)OC2CCCC2)CCN(C)CC1` [Compound No. 55, Cyclopentyl-2-(2,3,4,5-tetrahydro-3,9-dimethylazepino[4,5-b]indol-6(1H)-yl)acetate], with 8%.
As to `CN1CCc2c(n(CC(O)c3ccc(F)cc3)c3ccc(Cl)cc23)CC1` (stereo not drawn) [Compound No. 51, 2-(9-chloro-2,3,4,5-tetrahydro-3-methylazepino[4,5-b]indol-6(1H)-yl)-1-(4-fluorophenyl) ethanol], the inhibition at 1 µM was 85%.
In the case of `Cc1ccc2c(c1)c1c(n2/C=C/c2ccccc2)CCN(C)CC1` [Compound No. 229, (E)-3,9-dimethyl-6-styryl-1,2,3,4,5,6-hexahydroazepino[4,5-b]indole], the inhibition at 1 µM amounted to 97%.
For `CN1CCc2c(n(CC(O)c3ccc(Cl)cc3)c3ccc(Cl)cc23)CC1` (stereo not drawn) [Compound No. 16, 2-(9-chloro-2,3,4,5-tetrahydro-3-methylazepino[4,5-b]indol-6(1H)-yl)-1-(4-chlorophenyl)ethanol] the value was 85%; for `CN1CCc2c(n(/C=C/c3ccc(F)cc3)c3ccc(Cl)cc23)CC1` [Compound No. 234, (E)-9-chloro-6-(4-fluorostyryl)-3-methyl-1,2,3,4,5,6-hexahydroazepino[4,5-b]indole], 97%; for `Cc1ccc2c(c1)c1c(n2CC(O)c2ccc(Cl)cc2)CCN(C)CC1` (stereo not drawn) [Compound No. 17, 1-(4-chlorophenyl)-2-(2,3,4,5-tetrahydro-3,9-dimethylazepino[4,5-b]indol-6(1H)-yl)ethanol], 95%.
For `Cc1ccc2c(c1)c1c(n2/C=C/c2ccc(F)cc2)CCN(C)CC1` [Compound No. 39, 6-(4-fluorostyryl)-1,2,3,4,5,6-hexahydro-3,9-dimethylazepino[4,5-b]indole] the value was 99%.

Source of the values: patent US9481676B2, “Azepino[4,5-B]indoles and methods of use” (Medivation Technologies, Inc., priority 2008, dated 2016).
